Results: the supplement of paper PMC11451515

Tested on: SEM cells
Assay: cell viability relative to DMSO control; higher = less cytotoxic
Conditions: 48 h
In short: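 Before seeding, each leukemia line was adapted for at least four passages in each medium. NOMO1 or SEM cells (500 cells/well) and P12-Ichikawa cells (1000 cells/well) went into 1536-well plates at 5 μl, then received library compounds in DMSO by pin dosing across 11 threefold concentrations, 47 μM to 0.79 nM. Readout was CellTiter-Glo One luminescence after 48 h at 37°C, and viability is given as a per-plate percentage of DMSO wells, with cell-free wells as background.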

[1] = HPLM + 10% dialyzed FBS, 0.000781 µM
[2] = HPLM + 10% dialyzed FBS, 0.00234 µM
[3] = HPLM + 10% dialyzed FBS, 0.00702 µM
[4] = HPLM + 10% dialyzed FBS, 0.0211 µM
[5] = HPLM + 10% dialyzed FBS, 0.0632 µM
[6] = HPLM + 10% dialyzed FBS, 0.19 µM
[7] = HPLM + 10% dialyzed FBS, 0.569 µM
[8] = HPLM + 10% dialyzed FBS, 1.71 µM
[9] = HPLM + 10% dialyzed FBS, 5.12 µM
[10] = HPLM + 10% dialyzed FBS, 15.4 µM
[11] = HPLM + 10% dialyzed FBS, 46.1 µM
[12] = RPMI 5 mM glucose + 10% FBS, 0.000781 µM
[13] = RPMI 5 mM glucose + 10% FBS, 0.00234 µM
[14] = RPMI 5 mM glucose + 10% FBS, 0.00702 µM
[15] = RPMI 5 mM glucose + 10% FBS, 0.0211 µM
[16] = RPMI 5 mM glucose + 10% FBS, 0.0632 µM
[17] = RPMI 5 mM glucose + 10% FBS, 0.19 µM
[18] = RPMI 5 mM glucose + 10% FBS, 0.569 µM
[19] = RPMI 5 mM glucose + 10% FBS, 1.71 µM
[20] = RPMI 5 mM glucose + 10% FBS, 5.12 µM
[21] = RPMI 5 mM glucose + 10% FBS, 15.4 µM
[22] = RPMI 5 mM glucose + 10% FBS, 46.1 µM
[23] = RPMI 5 mM glucose + 10% dialyzed FBS, 0.000781 µM
[24] = RPMI 5 mM glucose + 10% dialyzed FBS, 0.00234 µM
[25] = RPMI 5 mM glucose + 10% dialyzed FBS, 0.00702 µM
[26] = RPMI 5 mM glucose + 10% dialyzed FBS, 0.0211 µM
[27] = RPMI 5 mM glucose + 10% dialyzed FBS, 0.0632 µM
[28] = RPMI 5 mM glucose + 10% dialyzed FBS, 0.19 µM
[29] = RPMI 5 mM glucose + 10% dialyzed FBS, 0.569 µM
[30] = RPMI 5 mM glucose + 10% dialyzed FBS, 1.71 µM
[31] = RPMI 5 mM glucose + 10% dialyzed FBS, 5.12 µM
[32] = RPMI 5 mM glucose + 10% dialyzed FBS, 15.4 µM
[33] = RPMI 5 mM glucose + 10% dialyzed FBS, 46.1 µM

## CCC(=O)NC[C@H](Cc1ccc(OCCc2nc(-c3ccccc3)oc2C)cc1)N/C(C)=C\C(=O)c1ccc(C(F)(F)F)cc1
[1]
  cell viability: 68.8%
[2]
  cell viability: 106%
[3]
  cell viability: 104%
[4]
  cell viability: 88.3%
[5]
  cell viability: 91%
[6]
  cell viability: 109%
[7]
  cell viability: 4.25%
[8]
  cell viability: 81.6%
[9]
  cell viability: 82.6%
[10]
  cell viability: 50.4%
[11]
  cell viability: 49.3%
[12]
  cell viability: 83.1%
[13]
  cell viability: 97.2%
[14]
  cell viability: 120%
[15]
  cell viability: 105%
[16]
  cell viability: 98%
[17]
  cell viability: 120%
[18]
  cell viability: 4.86%
[19]
  cell viability: 83.4%
[20]
  cell viability: 99.4%
[21]
  cell viability: 51.9%
[22]
  cell viability: 67.2%
[23]
  cell viability: 60.2%
[24]
  cell viability: 97.7%
[25]
  cell viability: 113%
[26]
  cell viability: 118%
[27]
  cell viability: 120%
[28]
  cell viability: 109%
[29]
  cell viability: 5.19%
[30]
  cell viability: 93%
[31]
  cell viability: 94.5%
[32]
  cell viability: 43.9%
[33]
  cell viability: 65.5%

## CCCC[S+](=N)([O-])CCC(N)C(=O)O (stereo unspecified)
[1]
  cell viability: 87.1%
[2]
  cell viability: 78.5%
[3]
  cell viability: 102%
[4]
  cell viability: 107%
[5]
  cell viability: 124%
[6]
  cell viability: 108%
[7]
  cell viability: 132%
[8]
  cell viability: 102%
[9]
  cell viability: 109%
[10]
  cell viability: 97.5%
[11]
  cell viability: 41.6%
[12]
  cell viability: 114%
[13]
  cell viability: 109%
[14]
  cell viability: 136%
[15]
  cell viability: 131%
[16]
  cell viability: 113%
[17]
  cell viability: 136%
[18]
  cell viability: 128%
[19]
  cell viability: 104%
[20]
  cell viability: 125%
[21]
  cell viability: 103%
[22]
  cell viability: 84.6%
[23]
  cell viability: 120%
[24]
  cell viability: 108%
[25]
  cell viability: 131%
[26]
  cell viability: 122%
[27]
  cell viability: 137%
[28]
  cell viability: 140%
[29]
  cell viability: 128%
[30]
  cell viability: 146%
[31]
  cell viability: 157%
[32]
  cell viability: 111%
[33]
  cell viability: 120%

## COCC(=O)NC/C=C/c1ccc2ncnc(Nc3ccc(Oc4ccc(C)nc4)c(C)c3)c2c1
[1]
  cell viability: 87.2%
[2]
  cell viability: 87.7%
[3]
  cell viability: 87.1%
[4]
  cell viability: 96.4%
[5]
  cell viability: 92.4%
[6]
  cell viability: 92.3%
[7]
  cell viability: 108%
[8]
  cell viability: 90.3%
[9]
  cell viability: 82.2%
[10]
  cell viability: 89.1%
[11]
  cell viability: 66.5%
[12]
  cell viability: 102%
[13]
  cell viability: 105%
[14]
  cell viability: 124%
[15]
  cell viability: 95.2%
[16]
  cell viability: 105%
[17]
  cell viability: 98.8%
[18]
  cell viability: 103%
[19]
  cell viability: 97.8%
[20]
  cell viability: 93%
[21]
  cell viability: 99.9%
[22]
  cell viability: 34.6%
[23]
  cell viability: 78.8%
[24]
  cell viability: 82.9%
[25]
  cell viability: 93.6%
[26]
  cell viability: 95.6%
[27]
  cell viability: 101%
[28]
  cell viability: 86.8%
[29]
  cell viability: 94.2%
[30]
  cell viability: 91%
[31]
  cell viability: 71.6%
[32]
  cell viability: 88%
[33]
  cell viability: 49%

## CC1(C)[C@@H](O)CC[C@@]2(C)[C@H]1CC[C@]3(C)[C@@H]2C(=O)\C=C/4[C@@H]5C[C@](C)(CC[C@]5(C)CC[C@@]34C)C(O)=O
[1]
  cell viability: 99.3%
[2]
  cell viability: 98.8%
[3]
  cell viability: 99.7%
[4]
  cell viability: 104%
[5]
  cell viability: 105%
[6]
  cell viability: 93.9%
[7]
  cell viability: 99%
[8]
  cell viability: 110%
[9]
  cell viability: 99.3%
[10]
  cell viability: 90.7%
[11]
  cell viability: 86.9%
[12]
  cell viability: 98.4%
[13]
  cell viability: 113%
[14]
  cell viability: 108%
[15]
  cell viability: 108%
[16]
  cell viability: 101%
[17]
  cell viability: 113%
[18]
  cell viability: 97.3%
[19]
  cell viability: 108%
[20]
  cell viability: 99.6%
[21]
  cell viability: 101%
[22]
  cell viability: 86.1%
[23]
  cell viability: 100%
[24]
  cell viability: 92.7%
[25]
  cell viability: 112%
[26]
  cell viability: 109%
[27]
  cell viability: 98.6%
[28]
  cell viability: 108%
[29]
  cell viability: 114%
[30]
  cell viability: 103%
[31]
  cell viability: 90.2%
[32]
  cell viability: 107%
[33]
  cell viability: 102%

## CCOc1cc(C(=O)Nc2ccc(Cl)c(-c3nc4ccccc4[nH]3)c2)cc(OCC)c1OCC
[1]
  cell viability: 70.1%
[2]
  cell viability: 76%
[3]
  cell viability: 91.4%
[4]
  cell viability: 92.8%
[5]
  cell viability: 92%
[6]
  cell viability: 87.5%
[7]
  cell viability: 89.3%
[8]
  cell viability: 91%
[9]
  cell viability: 85.2%
[10]
  cell viability: 17.4%
[11]
  cell viability: 62.4%
[12]
  cell viability: 76.8%
[13]
  cell viability: 74.7%
[14]
  cell viability: 93.6%
[15]
  cell viability: 92.7%
[16]
  cell viability: 94.2%
[17]
  cell viability: 94.4%
[18]
  cell viability: 109%
[19]
  cell viability: 94.5%
[20]
  cell viability: 93.5%
[21]
  cell viability: 9.91%
[22]
  cell viability: 48.1%
[23]
  cell viability: 73.9%
[24]
  cell viability: 77.1%
[25]
  cell viability: 91.8%
[26]
  cell viability: 95.4%
[27]
  cell viability: 85.6%
[28]
  cell viability: 93.5%
[29]
  cell viability: 92.6%
[30]
  cell viability: 86.6%
[31]
  cell viability: 77.7%
[32]
  cell viability: 16.8%
[33]
  cell viability: 46.1%

## C[C@@H]1CC[C@@]2(CC[C@]3(C)\C(=C/C[C@@H]4[C@@]5(C)C[C@@H](O)[C@H](O)[C@@](C)(CO)[C@@H]5CC[C@@]34C)[C@@H]2[C@H]1C)C(O)=O
[1]
  cell viability: 65.5%
[2]
  cell viability: 75.1%
[3]
  cell viability: 80.4%
[4]
  cell viability: 86.6%
[5]
  cell viability: 76.5%
[6]
  cell viability: 90.6%
[7]
  cell viability: 99.1%
[8]
  cell viability: 91.9%
[9]
  cell viability: 96.5%
[10]
  cell viability: 110%
[11]
  cell viability: 115%
[12]
  cell viability: 114%
[13]
  cell viability: 110%
[14]
  cell viability: 107%
[15]
  cell viability: 120%
[16]
  cell viability: 115%
[17]
  cell viability: 106%
[18]
  cell viability: 128%
[19]
  cell viability: 127%
[20]
  cell viability: 110%
[21]
  cell viability: 120%
[22]
  cell viability: 7.07%
[23]
  cell viability: 87.9%
[24]
  cell viability: 93.8%
[25]
  cell viability: 105%
[26]
  cell viability: 96%
[27]
  cell viability: 103%
[28]
  cell viability: 76.4%
[29]
  cell viability: 66.6%
[30]
  cell viability: 46.1%
[31]
  cell viability: 229%
[32]
  cell viability: 158%
[33]
  cell viability: 127%

## Cc1nc(-c2ccc(-c3ccc(C(=O)N4CCc5cc6c(cc54)C4(CCN(C)CC4)CO6)cc3)c(C)c2)no1
[1]
  cell viability: 88.4%
[2]
  cell viability: 104%
[3]
  cell viability: 108%
[4]
  cell viability: 106%
[5]
  cell viability: 119%
[6]
  cell viability: 97.4%
[7]
  cell viability: 114%
[8]
  cell viability: 108%
[9]
  cell viability: 117%
[10]
  cell viability: 136%
[11]
  cell viability: 123%
[12]
  cell viability: 114%
[13]
  cell viability: 102%
[14]
  cell viability: 107%
[15]
  cell viability: 105%
[16]
  cell viability: 99.3%
[17]
  cell viability: 112%
[18]
  cell viability: 114%
[19]
  cell viability: 101%
[20]
  cell viability: 117%
[21]
  cell viability: 107%
[22]
  cell viability: 113%
[23]
  cell viability: 108%
[24]
  cell viability: 99.7%
[25]
  cell viability: 103%
[26]
  cell viability: 95.4%
[27]
  cell viability: 92.5%
[28]
  cell viability: 96%
[29]
  cell viability: 104%
[30]
  cell viability: 96.5%
[31]
  cell viability: 92.8%
[32]
  cell viability: 100%
[33]
  cell viability: 103%
